Test results published in ChEMBL document CHEMBL1255475, “Mutant prevention concentrations of four carbapenems against gram-negative rods” (2010).
Converted amounts (≈) assume the structure as drawn.

Assays:
Klebsiella pneumoniae [1] = experiment: Ratio of mutant prevention concentration to minimum Inhibitory concentration for beta-lactamase-negative Klebsiella pneumoniae E358; assay type: functional
Klebsiella pneumoniae [2] = experiment: Ratio of mutant prevention concentration to minimum Inhibitory concentration for beta-lactamase-positive ESBL-positive Klebsiella pneumoniae E478; assay type: functional
Escherichia coli [3] = experiment: Antibacterial activity against beta-lactamase-negative Escherichia coli E425 incubated up to 7 days by agar dilution method; assay type: functional; details: E425, 168 h
Klebsiella pneumoniae [4] = experiment: Ratio of mutant prevention concentration to minimum Inhibitory concentration for beta-lactamase-negative Klebsiella pneumoniae E420; assay type: functional
Escherichia coli [5] = experiment: Ratio of mutant prevention concentration to minimum Inhibitory concentration for beta-lactamase-positive ESBL-positive Escherichia coli E451; assay type: functional
Escherichia coli [6] = experiment: Ratio of mutant prevention concentration to minimum Inhibitory concentration for beta-lactamase-negative Escherichia coli E348; assay type: functional
Klebsiella pneumoniae [7] = experiment: Ratio of mutant prevention concentration to minimum Inhibitory concentration for beta-lactamase-positive ESBL-negative Klebsiella pneumoniae E507; assay type: functional
Klebsiella pneumoniae [8] = experiment: Ratio of mutant prevention concentration to minimum Inhibitory concentration for beta-lactamase-positive ESBL-negative Klebsiella pneumoniae E511; assay type: functional
Klebsiella pneumoniae [9] = experiment: Ratio of mutant prevention concentration to minimum Inhibitory concentration for beta-lactamase-positive ESBL-positive Klebsiella pneumoniae E457; assay type: functional
Pseudomonas aeruginosa [10] = experiment: Antibacterial activity against Pseudomonas aeruginosa P370 incubated up to 7 days by agar dilution method; assay type: functional; details: P370, 168 h
Acinetobacter baumannii [11] = experiment: Ratio of mutant prevention concentration to minimum Inhibitory concentration for Acinetobacter baumannii A891; assay type: functional
Pseudomonas aeruginosa [12] = experiment: Antibacterial activity against Pseudomonas aeruginosa P358 incubated up to 7 days by agar dilution method; assay type: functional; details: P358, 168 h
Acinetobacter baumannii [13] = experiment: Ratio of mutant prevention concentration to minimum Inhibitory concentration for Acinetobacter baumannii A892; assay type: functional
Pseudomonas aeruginosa [14] = experiment: Ratio of mutant prevention concentration to minimum Inhibitory concentration for Pseudomonas aeruginosa P370; assay type: functional
Pseudomonas aeruginosa [15] = experiment: Ratio of mutant prevention concentration to minimum Inhibitory concentration for Pseudomonas aeruginosa P369; assay type: functional
Pseudomonas aeruginosa [16] = experiment: Ratio of mutant prevention concentration to minimum Inhibitory concentration for Pseudomonas aeruginosa P323; assay type: functional
Pseudomonas aeruginosa [17] = experiment: Antibacterial activity against Pseudomonas aeruginosa P373 incubated up to 7 days by agar dilution method; assay type: functional; details: P373, 168 h
Pseudomonas aeruginosa [18] = experiment: Ratio of mutant prevention concentration to minimum Inhibitory concentration for Pseudomonas aeruginosa P373; assay type: functional
Acinetobacter baumannii [19] = experiment: Ratio of mutant prevention concentration to minimum Inhibitory concentration for Acinetobacter baumannii A911; assay type: functional
Acinetobacter baumannii [20] = experiment: Ratio of mutant prevention concentration to minimum Inhibitory concentration for Acinetobacter baumannii A897; assay type: functional
Pseudomonas aeruginosa [21] = experiment: Ratio of mutant prevention concentration to minimum Inhibitory concentration for Pseudomonas aeruginosa P328; assay type: functional
Acinetobacter baumannii [22] = experiment: Antibacterial activity against Acinetobacter baumannii A891 incubated up to 7 days by agar dilution method; assay type: functional; details: A891, 168 h
Acinetobacter baumannii [23] = experiment: Ratio of mutant prevention concentration to minimum Inhibitory concentration for Acinetobacter baumannii A908; assay type: functional
Pseudomonas aeruginosa [24] = experiment: Antibacterial activity against Pseudomonas aeruginosa P376 incubated up to 7 days by agar dilution method; assay type: functional; details: P376, 168 h
Acinetobacter baumannii [25] = experiment: Antibacterial activity against Acinetobacter baumannii A864 assessed as mutant prevention concentration after overnight incubation; assay type: functional
Acinetobacter baumannii [26] = experiment: Antibacterial activity against Acinetobacter baumannii A850 incubated up to 7 days by agar dilution method; assay type: functional; details: A850, 168 h
Acinetobacter baumannii [27] = experiment: Ratio of mutant prevention concentration to minimum Inhibitory concentration for Acinetobacter baumannii A885; assay type: functional
Klebsiella pneumoniae [28] = experiment: Antibacterial activity against beta-lactamase-positive ESBL-negative Klebsiella pneumoniae E477 after 24 hrs by agar dilution method; assay type: functional; details: E477, 24 h
Escherichia coli [29] = experiment: Antibacterial activity against beta-lactamase-positive ESBL-positive Escherichia coli E446 after 24 hrs by agar dilution method; details: E446, 24 h
Escherichia coli [30] = experiment: Antibacterial activity against beta-lactamase-positive ESBL-positive Escherichia coli E458 after 24 hrs by agar dilution method; details: E458, 24 h
Pseudomonas aeruginosa [31] = experiment: Antibacterial activity against Pseudomonas aeruginosa P349 after 24 hrs by agar dilution method; details: P349, 24 h
Escherichia coli [32] = experiment: Antibacterial activity against beta-lactamase-negative Escherichia coli E425 after 24 hrs by agar dilution method; details: E425, 24 h
Klebsiella pneumoniae [33] = experiment: Antibacterial activity against beta-lactamase-positive ESBL-positive Klebsiella pneumoniae E453 after 24 hrs by agar dilution method; assay type: functional; details: E453, 24 h
Acinetobacter baumannii [34] = experiment: Antibacterial activity against Acinetobacter baumannii A850 after 24 hrs by agar dilution method; assay type: functional; details: A850, 24 h
Klebsiella pneumoniae [35] = experiment: Antibacterial activity against beta-lactamase-negative Klebsiella pneumoniae E419 after 24 hrs by agar dilution method; assay type: functional; details: E419, 24 h
Escherichia coli [36] = experiment: Antibacterial activity against beta-lactamase-negative Escherichia coli E345 after 24 hrs by agar dilution method; details: E345, 24 h
Pseudomonas aeruginosa [37] = experiment: Antibacterial activity against Pseudomonas aeruginosa P335 after 24 hrs by agar dilution method; details: P335, 24 h
Pseudomonas aeruginosa [38] = experiment: Antibacterial activity against Pseudomonas aeruginosa P334 after 24 hrs by agar dilution method; details: P334, 24 h
Escherichia coli [39] = experiment: Antibacterial activity against beta-lactamase-positive ESBL-positive Escherichia coli E452 after 24 hrs by agar dilution method; details: E452, 24 h
Acinetobacter baumannii [40] = experiment: Antibacterial activity against Acinetobacter baumannii A911 after 24 hrs by agar dilution method; assay type: functional; details: A911, 24 h
Klebsiella pneumoniae [41] = experiment: Antibacterial activity against beta-lactamase-negative Klebsiella pneumoniae E420 after 24 hrs by agar dilution method; assay type: functional; details: E420, 24 h
Escherichia coli [42] = experiment: Antibacterial activity against beta-lactamase-positive ESBL-positive Escherichia coli E456 after 24 hrs by agar dilution method; details: E456, 24 h
Escherichia coli [43] = experiment: Antibacterial activity against beta-lactamase-positive ESBL-negative Escherichia coli E437 after 24 hrs by agar dilution method; details: E437, 24 h
Acinetobacter baumannii [44] = experiment: Antibacterial activity against Acinetobacter baumannii A894 after 24 hrs by agar dilution method; assay type: functional; details: A894, 24 h
Escherichia coli [45] = experiment: Antibacterial activity against beta-lactamase-negative Escherichia coli E409 after 24 hrs by agar dilution method; details: E409, 24 h
Acinetobacter baumannii [46] = experiment: Antibacterial activity against Acinetobacter baumannii A929 after 24 hrs by agar dilution method; assay type: functional; details: A929, 24 h
Escherichia coli [47] = experiment: Antibacterial activity against beta-lactamase-negative Escherichia coli E350 after 24 hrs by agar dilution method; details: E350, 24 h
Klebsiella pneumoniae [48] = experiment: Antibacterial activity against beta-lactamase-positive ESBL-negative Klebsiella pneumoniae E474 after 24 hrs by agar dilution method; assay type: functional; details: E474, 24 h
Klebsiella pneumoniae [49] = experiment: Antibacterial activity against beta-lactamase-negative Klebsiella pneumoniae E360 after 24 hrs by agar dilution method; assay type: functional; details: E360, 24 h
Klebsiella pneumoniae [50] = experiment: Antibacterial activity against beta-lactamase-positive ESBL-negative Klebsiella pneumoniae E473 after 24 hrs by agar dilution method; assay type: functional; details: E473, 24 h
Klebsiella pneumoniae [51] = experiment: Antibacterial activity against beta-lactamase-positive ESBL-negative Klebsiella pneumoniae E480 after 24 hrs by agar dilution method; assay type: functional; details: E480, 24 h
Escherichia coli [52] = experiment: Antibacterial activity against beta-lactamase-positive ESBL-positive Escherichia coli E465 after 24 hrs by agar dilution method; details: E465, 24 h

C[C@@H](O)[C@H]1C(=O)N2C(C(=O)O)=C(S[C@@H]3CN[C@H](C(=O)Nc4cccc(C(=O)O)c4)C3)[C@H](C)[C@H]12
Ratio (Klebsiella pneumoniae [1]): 4
Ratio (Klebsiella pneumoniae [2]): 2
MIC (Escherichia coli [3]): 0.008 µg/mL (≈ 0.0168 µM)
Ratio (Klebsiella pneumoniae [4]): 4
Ratio (Escherichia coli [5]): 16
Ratio (Escherichia coli [6]): 4
Ratio (Klebsiella pneumoniae [7]): 8
Ratio (Klebsiella pneumoniae [8]): 8
Ratio (Klebsiella pneumoniae [9]): 4

C[C@@H](O)[C@H]1C(=O)N2C(C(=O)O)=C(S[C@@H]3CN[C@H](CNS(N)(=O)=O)C3)[C@H](C)[C@H]12 [DORIPENEM]
Ratio (Klebsiella pneumoniae [1]): 2
MIC (Pseudomonas aeruginosa [10]): 0.25 µg/mL (≈ 0.595 µM)
Ratio (Acinetobacter baumannii [11]): 4
Ratio (Klebsiella pneumoniae [2]): >16
MIC (Escherichia coli [3]): 0.03 µg/mL (≈ 0.0713 µM)
MIC (Pseudomonas aeruginosa [12]): 8 µg/mL (≈ 19 µM)
Ratio (Klebsiella pneumoniae [4]): 1
Ratio (Escherichia coli [5]): 2
Ratio (Acinetobacter baumannii [13]): 16
Ratio (Pseudomonas aeruginosa [14]): 16
Ratio (Pseudomonas aeruginosa [15]): 8
Ratio (Pseudomonas aeruginosa [16]): 8
MIC (Pseudomonas aeruginosa [17]): 0.5 µg/mL (≈ 1.19 µM)
Ratio (Escherichia coli [6]): 2
Ratio (Pseudomonas aeruginosa [18]): >8
Ratio (Acinetobacter baumannii [19]): 2
Ratio (Acinetobacter baumannii [20]): 2
Ratio (Klebsiella pneumoniae [7]): >16
Ratio (Pseudomonas aeruginosa [21]): 2
Ratio (Klebsiella pneumoniae [8]): >16
MIC (Acinetobacter baumannii [22]): 0.5 µg/mL (≈ 1.19 µM)
Ratio (Acinetobacter baumannii [23]): 2
Ratio (Klebsiella pneumoniae [9]): 2
MIC (Pseudomonas aeruginosa [24]): 0.5 µg/mL (≈ 1.19 µM)
MPC (Acinetobacter baumannii [25]): 64 µg/mL
MIC (Acinetobacter baumannii [26]): 4 µg/mL (≈ 9.51 µM)
Ratio (Acinetobacter baumannii [27]): 2

C[C@@H](O)[C@H]1C(=O)N2C(C(=O)O)=C(S[C@@H]3CN[C@H](C(=O)N(C)C)C3)[C@H](C)[C@H]12 [MEROPENEM]
MIC (Pseudomonas aeruginosa [10]): 0.25 µg/mL (≈ 0.652 µM)
MIC (Pseudomonas aeruginosa [12]): 8 µg/mL (≈ 20.9 µM)
MIC (Pseudomonas aeruginosa [17]): 0.5 µg/mL (≈ 1.3 µM)
MIC (Acinetobacter baumannii [22]): 1 µg/mL (≈ 2.61 µM)
MIC (Pseudomonas aeruginosa [24]): 1 µg/mL (≈ 2.61 µM)
MIC (Acinetobacter baumannii [26]): 4 µg/mL (≈ 10.4 µM)

C[C@@H](O)[C@H]1C(=O)N2C(C(=O)O)=C(SCCNC=N)C[C@H]12 [IMIPENEM ANHYDROUS]
MIC (Klebsiella pneumoniae [28]): 4 µg/mL (≈ 13.4 µM)
MIC (Escherichia coli [29]): 0.25 µg/mL (≈ 0.835 µM)
MIC (Escherichia coli [30]): 0.125 µg/mL (≈ 0.418 µM)
MIC (Pseudomonas aeruginosa [31]): 2 µg/mL (≈ 6.68 µM)
MIC (Escherichia coli [32]): 0.25 µg/mL (≈ 0.835 µM)
MIC (Klebsiella pneumoniae [33]): 0.125 µg/mL (≈ 0.418 µM)
MIC (Acinetobacter baumannii [34]): 4 µg/mL (≈ 13.4 µM)
MIC (Klebsiella pneumoniae [35]): 0.5 µg/mL (≈ 1.67 µM)
MIC (Escherichia coli [36]): 0.25 µg/mL (≈ 0.835 µM)
MIC (Pseudomonas aeruginosa [37]): 1 µg/mL (≈ 3.34 µM)
MIC (Pseudomonas aeruginosa [38]): 1 µg/mL (≈ 3.34 µM)
MIC (Escherichia coli [39]): 0.125 µg/mL (≈ 0.418 µM)
MIC (Acinetobacter baumannii [40]): 2 µg/mL (≈ 6.68 µM)
MIC (Klebsiella pneumoniae [41]): 0.25 µg/mL (≈ 0.835 µM)
MIC (Escherichia coli [42]): 0.125 µg/mL (≈ 0.418 µM)
MIC (Escherichia coli [43]): 0.25 µg/mL (≈ 0.835 µM)
MIC (Acinetobacter baumannii [44]): 0.5 µg/mL (≈ 1.67 µM)
MIC (Escherichia coli [45]): 0.25 µg/mL (≈ 0.835 µM)
MIC (Acinetobacter baumannii [46]): 0.5 µg/mL (≈ 1.67 µM)
MIC (Escherichia coli [47]): 0.5 µg/mL (≈ 1.67 µM)
MIC (Klebsiella pneumoniae [48]): 8 µg/mL (≈ 26.7 µM)
MIC (Klebsiella pneumoniae [49]): 0.25 µg/mL (≈ 0.835 µM)
MIC (Klebsiella pneumoniae [50]): 4 µg/mL (≈ 13.4 µM)
MIC (Klebsiella pneumoniae [51]): 2 µg/mL (≈ 6.68 µM)
MPC (Acinetobacter baumannii [25]): 64 µg/mL
MIC (Escherichia coli [52]): 0.25 µg/mL (≈ 0.835 µM)
